Article PMC11578313, “Miniaturized Modular Click Chemistry‐enabled Rapid Discovery of Unique SARS‐CoV‐2 M^pro Inhibitors With Robust Potency and Drug‐like Profile” (Advanced Science, 2024)
“And” between values parts separate entries of the source, which are not always exact repeats. Equal values may be shown once. Read-outs that look alike come from different tables or passages of the source.

Conditions: for Plasma concentration (Calculated Concentration): mouse plasma
[1] = C5N17B+Ritonavir, PO 10 mg/kg, individual mice 1#-3#, 10 mg/kg
[2] = C5N17B+Ritonavir, po 10 mg/kg, based on predicted Clast, individual mice, 10 mg/kg
[3] = C5N17B+Ritonavir, po 10 mg/kg, dose-normalised, individual mice, 10 mg/kg
[4] = C5N17B+Ritonavir, po 10 mg/kg, non-compartmental output, individual mice, 10 mg/kg

## Cc1cncc(C(=O)N2C[C@H]3CC[C@@H](C2)N3[C@H](c2cccc(F)c2)c2cn(CCc3ccsc3)nn2)c1 [Compound C5N17B]
[1]
  AUC0-∞: 13462 ng·h/mL and 18653 ng·h/mL
  AUC(0-t): 13105 ng·h/mL and 11834 ng·h/mL
  Cmax: 2150 ng/mL and 2470 ng/mL
  MRT0-t: 3.43 h and 3.39 h
  MRT0-∞: 3.03 h and 3.63 h and 7.98 h
  T1/2: 1.87 h and 2.03 h and 5.52 h
C5N17B+Ritonavir, PO 10 mg/kg, 5 min (5min), individual mice, 10 mg/kg
  Plasma concentration (Calculated Concentration): 861 ng/mL and 439 ng/mL
C5N17B+Ritonavir, PO 10 mg/kg, 0.5 h (30min), individual mice, 10 mg/kg
  Plasma concentration (Calculated Concentration): 1220 ng/mL and 1720 ng/mL
C5N17B+Ritonavir, PO 10 mg/kg, 1 h, individual mice, 10 mg/kg
  Plasma concentration (Calculated Concentration): 1750 ng/mL and 1960 ng/mL
C5N17B+Ritonavir, PO 10 mg/kg, 2 h, individual mice, 10 mg/kg
  Plasma concentration (Calculated Concentration): 2270 ng/mL and 2140 ng/mL
C5N17B+Ritonavir, PO 10 mg/kg, 4 h, individual mice, 10 mg/kg
  Plasma concentration (Calculated Concentration): 1920 ng/mL and 2150 ng/mL
[2]
  AUCINF_pred: 13994.4 ng·h/mL and 18824.1 ng·h/mL
  Cl_F_pred: 15.3694 mL/min/kg and 11.9096 mL/min/kg and 8.85392 mL/min/kg
  MRTINF_pred: 3.269 h and 3.905 h and 8.0548 h
  Vz_F_pred: 2.48776 L/kg and 2.09319 L/kg and 4.22695 L/kg
C5N17B+Ritonavir, po 10 mg/kg, dose-normalised, based on predicted Clast, individual mice, 10 mg/kg
  AUCINF_D_pred: 1084.41 kg·ng·h/mL/mg and 1399.44 kg·ng·h/mL/mg and 1882.41 kg·ng·h/mL/mg
[3]
  AUCINF_D_obs: 1039.52 kg·ng·h/mL/mg and 1346.22 kg·ng·h/mL/mg and 1865.31 kg·ng·h/mL/mg
  AUClast_D: 968.565 kg·ng·h/mL/mg and 1310.48 kg·ng·h/mL/mg and 1183.41 kg·ng·h/mL/mg
  Cmax_D: 227 kg·ng/mL/mg and 215 kg·ng/mL/mg and 247 kg·ng/mL/mg
C5N17B+Ritonavir, po 10 mg/kg, non-compartmental output, individual mice
  Tlag: 0 h
[4]
  AUCINF_obs: 13462.2 ng·h/mL and 18653.1 ng·h/mL
  AUCall: 13104.8 ng·h/mL and 11834.1 ng·h/mL
  AUClast: 13104.8 ng·h/mL and 11834.1 ng·h/mL
  AUMClast: 25373.2 h*h*ng/ml and 44928.8 h*h*ng/ml and 40086.7 h*h*ng/ml
  Cl_F_obs: 12.3804 mL/min/kg and 8.93505 mL/min/kg
  Cmax: 2150 ng/mL and 2470 ng/mL
  HL_Lambda_z: 1.87 h and 2.03 h and 5.515 h
  Lambda_z: 0.3707 h⁻¹ and 0.3414 h⁻¹ and 0.1257 h⁻¹
  MRTINF_obs: 3.035 h and 3.628 h and 7.982 h
  MRTlast: 3.428 h and 3.387 h
  Tlast: 6 h and 8 h
  Vz_F_obs: 2.5952 L/kg and 2.17594 L/kg and 4.26569 L/kg
C5N17B+Ritonavir, po 10 mg/kg, predicted from terminal fit, individual mice, 10 mg/kg
  Clast_pred: 429.412 ng/mL and 303.677 ng/mL and 878.481 ng/mL
p.o. 10 mg kg^−1
  plasma exposure (AUC0‐t) with ritonavir higher than when administered alone: ~300 fold
